Reference: ChEMBL document CHEMBL1933062, “Synthesis of purine N9-[2-hydroxy-3-O-(phosphonomethoxy)propyl] derivatives and their side-chain modified analogs as potential antimalarial agents” (Bioorg Med Chem, 2012)
The source made the active and inactive calls. The calls are words filed in the database; no cut-off is given here.

Assays:
[1] = biological target: T1, Hypoxanthine-guanine phosphoribosyltransferase (Homo sapiens) (UniProt P00492); assay: (§1) Inhibition of human HGPRT by spectrophotometric analysis in absence of PPi
T1 sequence (whole entry): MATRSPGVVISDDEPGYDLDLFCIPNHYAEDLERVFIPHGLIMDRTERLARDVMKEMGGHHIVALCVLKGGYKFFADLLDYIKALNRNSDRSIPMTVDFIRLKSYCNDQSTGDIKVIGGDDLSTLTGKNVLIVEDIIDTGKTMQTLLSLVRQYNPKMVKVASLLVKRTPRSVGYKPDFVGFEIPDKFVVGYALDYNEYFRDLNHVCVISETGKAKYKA

[2] = biological target: T1, Hypoxanthine-guanine phosphoribosyltransferase (Homo sapiens); assay: Inhibition of human HGPRT by spectrophotometric analysis in presence of 52 uM PPi
Plasmodium falciparum [3] = assay: (§2) Inhibition of Plasmodium falciparum HGPRT by spectrophotometric analysis in absence of PPi
Plasmodium falciparum [4] = assay: (§3) Inhibition of Plasmodium falciparum HGPRT by spectrophotometric analysis in presence of 52 uM PPi
Plasmodium vivax [5] = assay: (§4) Inhibition of Plasmodium vivax HGPRT by spectrophotometric analysis in absence of PPi
Plasmodium vivax [6] = assay: (§5) Inhibition of Plasmodium vivax HGPRT by spectrophotometric analysis in presence of 52 uM PPi
[7] = biological target: T2, Hypoxanthine-guanine phosphoribosyltransferase (Homo sapiens, UniProt P00492); assay: as §1
T2 sequence (P00492 whole entry): T1 sequence (whole entry)

[8] = as §2
[9] = as §4
[10] = biological target: T1, Hypoxanthine-guanine phosphoribosyltransferase (Homo sapiens); assay: Inhibition of human HGPRT at >= 30 uM by spectrophotometric analysis in presence of 52 uM PPi
Plasmodium falciparum [11] = assay: Inhibition of Plasmodium falciparum HGPRT at >= 30 uM by spectrophotometric analysis in presence of 52 uM PPi
Plasmodium vivax [12] = assay: Inhibition of Plasmodium vivax HGPRT at >= 30 uM by spectrophotometric analysis in presence of 52 uM PPi
[13] = Selectivity ratio of Ki for human HGPRT to Ki for Plasmodium falciparum HGPRT
[14] = Selectivity ratio of Ki for human HGPRT to Ki for Plasmodium vivax HGPRT
[15] = as §3
[16] = as §5
[17] = biological target: T1, Hypoxanthine-guanine phosphoribosyltransferase (Homo sapiens); assay: Inhibition of human HGPRT at >= 30 uM by spectrophotometric analysis in absence of PPi
[18] = biological target: T1, Hypoxanthine-guanine phosphoribosyltransferase (Homo sapiens); assay: Inhibition of human HGPRT at >= 100 uM by spectrophotometric analysis in absence of PPi
[19] = biological target: T1, Hypoxanthine-guanine phosphoribosyltransferase (Homo sapiens); assay: Inhibition of human HGPRT at >= 100 uM by spectrophotometric analysis in presence of 52 uM PPi
Plasmodium falciparum [20] = assay: Inhibition of Plasmodium falciparum HGPRT at >= 100 uM by spectrophotometric analysis in absence of PPi
Plasmodium falciparum [21] = assay: Inhibition of Plasmodium falciparum HGPRT at >= 100 uM by spectrophotometric analysis in presence of 52 uM PPi
Plasmodium vivax [22] = assay: Inhibition of Plasmodium vivax HGPRT at >= 100 uM by spectrophotometric analysis in absence of PPi
Plasmodium vivax [23] = assay: Inhibition of Plasmodium vivax HGPRT at >= 100 uM by spectrophotometric analysis in presence of 52 uM PPi

| Structure (SMILES) | Ki [7] [µM] | Ki [8] [µM] | Ki [9] [µM] | inhibition [10] | Ratio Ki [13] | Ratio Ki [14] | Ki [15] [µM] | Ki [16] [µM] | further results |
| --- | --- | --- | --- | --- | --- | --- | --- | --- | --- |
| O=c1[nH]cnc2c1ncn2/C=C\COCP(=O)(O)O | – | – | – | – | – | – | – | – | inhibition [1]: inactive; inhibition [2]: inactive; inhibition (Plasmodium falciparum [3]): inactive; inhibition (Plasmodium falciparum [4]): inactive; inhibition (Plasmodium vivax [5]): inactive; inhibition (Plasmodium vivax [6]): inactive |
| Nc1nc2c(ncn2CC(COCP(=O)(O)O)OCC(=O)O)c(=O)[nH]1 (stereo not given) | 5 | 5 | 27 | inactive | 1 | 0.2 | – | – | inhibition (Plasmodium falciparum [11]): inactive; inhibition (Plasmodium vivax [12]): inactive |
| O=c1[nH]cnc2c1ncn2CC(O)COCP(=O)(O)O (stereo not given) | – | 2 | 5 | inactive | > 50 | > 25 | 0.3 | 0.9 | inhibition [17]: inactive |
| Nc1nc2c(ncn2CC(O)COCP(=O)(O)O)c(=O)[nH]1 (stereo not given) | 4 | 1.4 | 10 | – | 2.8 | 0.4 | 0.5 | 2.8 | – |
| O=C(O)COC(COCP(=O)(O)O)Cn1cnc2c(=O)[nH]cnc21 (stereo not given) | – | – | – | – | – | – | – | – | inhibition [18]: inactive; inhibition [19]: inactive; inhibition (Plasmodium falciparum [20]): inactive; inhibition (Plasmodium falciparum [21]): inactive; inhibition (Plasmodium vivax [22]): inactive; inhibition (Plasmodium vivax [23]): inactive |
